US7632829B2, “Diazepan derivatives” (Hoffmann-La Roche Inc., priority 2006, dated 2009)

Target: T1, human chemokine receptor 2 isoform B (Homo sapiens, UniProt P41597)
T1 construct: host or cells: CHOK1-CCR2B-A5 (CHO-K1)
T1 sequence (P41597 1-360 isoform P41597-2): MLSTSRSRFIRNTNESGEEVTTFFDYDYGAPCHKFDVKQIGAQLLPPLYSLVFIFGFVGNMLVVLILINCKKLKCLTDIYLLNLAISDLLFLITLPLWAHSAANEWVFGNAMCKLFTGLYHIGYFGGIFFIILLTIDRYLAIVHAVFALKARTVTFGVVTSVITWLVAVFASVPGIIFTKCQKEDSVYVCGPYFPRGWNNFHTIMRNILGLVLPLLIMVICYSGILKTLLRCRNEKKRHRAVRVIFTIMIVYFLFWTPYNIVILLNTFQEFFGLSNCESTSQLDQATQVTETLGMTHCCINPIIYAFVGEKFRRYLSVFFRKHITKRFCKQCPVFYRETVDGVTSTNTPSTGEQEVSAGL
Assay: Calcium mobilization assay (FLIPR, CHOK1-CCR2B-A5 cells, 20 nM MCP-1)
Assay type: cell-based
Settings: Ca mobilisation assay, CCR2, antagonist activity vs 20 nM MCP-1
Outline: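 FLIPR Fluo-4 calcium readout in CHO-K1 cells stably overexpressing human CCR2B; compounds first monitored 80 s for agonist activity, then after 20-30 min at 30 °C challenged with 20 nM MCP-1. Response is max minus basal fluorescence; antagonist value is concentration giving 50% inhibition of specific calcium increase.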

Point of comparison: CC1CCCN(CC(O)CN2CCN(C(=O)/C=C/c3ccc(Cl)c(Cl)c3)CCC2=O)C1 (racemic) [Example 288], IC50 206 nM. Against it:
- CC1CCCCC1NCCN1CCN(C(=O)C=Cc2ccc(Cl)c(Cl)c2)CCC1=O (mixture of isomers) [Example 104, cis/trans-1-[(E)-3-(3,4-Dichloro-phenyl)-acryloyl]-4-[3-(2-methyl-cyclohexylamino)-ethyl]-[1,4]diazepan-5-one] — 2.9-fold higher, 598 nM
- CC(C)CN1CCN(CC(O)CN2CCN(C(=O)C=Cc3ccc(Cl)c(Cl)c3)CCC2=O)CC1 (racemic) [Example 325] — 3.6-fold higher, 741 nM
- CC1(CO)CCN(CC(O)CN2CCN(C(=O)C=Cc3ccc(Cl)c(Cl)c3)CCC2=O)CC1O (single isomer, unassigned) [Example 331] — 3.5-fold lower, 59 nM
- COCC1CCN(CCCN2CCN(C(=O)/C=C/c3ccc(Cl)c(Cl)c3)CCC2=O)CC1 [Example 247] — 3-fold higher, 613 nM
- CN(CCO)CC(O)CN1CCN(C(=O)/C=C/c2ccc(Cl)c(Cl)c2)CCC1=O (racemic) [Example 320] — 7.2-fold higher, 1490 nM
- CC1(CO)CCN(CCCCN2CCN(C(=O)C=Cc3ccc(Cl)c(Cl)c3)CCC2=O)CC1O (stereo not drawn) [Example 473] — 4-fold lower, 51 nM
- O=C(/C=C/c1ccc(Cl)c(Cl)c1)N1CCC(=O)N(CCCCN2CCC[C@H](O)[C@@H]2CO)CC1 (racemic) [Example 480] — 3.9-fold lower, 53 nM
- CC1(CO)CCCN(CC(O)CN2CCN(C(=O)/C=C/c3ccc(Cl)c(Cl)c3)CCC2=O)C1 (racemic) [Example 305] — within 1.5-fold, 192 nM
- CC1CCCN(CCCN2CCN(C(=O)/C=C/c3ccc(Cl)c(Cl)c3)CCC2=O)C1 (racemic) [Example 235] — 1.8-fold lower, 112 nM
- O=C(/C=C/c1ccc(F)c(Cl)c1)N1CCC(=O)N(CCCN2CCCC(CO)C2)CC1 (racemic) [Example 211] — 1.8-fold higher, 363 nM
- CC1(CO)CCN(CCCCN2CCN(C(=O)C=Cc3ccc(Cl)c(F)c3)CCC2=O)CC1O (stereo not drawn) [Example 411] — within 1.5-fold, 199 nM
- O=C(/C=C/c1ccc(Cl)c(Cl)c1)N1CCC(=O)N(CCCN2CCC[C@H](O)C2)CC1 [Example 92, (S)-1-[(E)-3-(3,4-Dichloro-phenyl)-acryloyl]-4-[3-(3-hydroxy-piperidin-1-yl)-propyl]-[1,4]diazepan-5-one] — within 1.5-fold, 189 nM
- CC(=O)NC1CCN(CCCCN2CCN(C(=O)/C=C/c3ccc(Cl)c(Cl)c3)CCC2=O)CC1 [Example 453] — 6.2-fold lower, 33 nM
- O=C(/C=C/c1ccc2ccccc2c1)N1CCC(=O)N(CCN2CCCC2)CC1 [Example 25, 1-(E)-(3-Naphthalen-2-yl-acryloyl)-4-(2-pyrrolidin-1-yl-ethyl)-[1,4]diazepan-5-one] — 5-fold higher, 1020 nM
- O=C(/C=C/c1ccc(Cl)c(Cl)c1)N1CCC(=O)N(CCCN2CCC(O)CC2)CC1 [Example 159, 1-[(E)-3-(3,4-Dichloro-phenyl)-acryloyl]-4-[3-(4-hydroxy-piperidin-1-yl)-propyl]-[1,4]diazepan-5-one] — within 1.5-fold, 258 nM
- O=C(/C=C/c1ccc(Cl)c(Cl)c1)N1CCC(=O)N(CCCCN2CCC3(CC3)C(O)C2)CC1 (racemic) [Example 456] — 13-fold lower, 16 nM
- O=C(/C=C/c1ccc(Cl)c(Cl)c1)N1CCC(=O)N(CCCN2CCC(O)C2)CC1 (racemic) [Example 71, (+/−)-1-[(E)-3-(3,4-Dichloro-phenyl)-acryloyl]-4-[3-(3-hydroxy-pyrrolidin-1-yl)-propyl]-[1,4]diazepan-5-one] — 2.7-fold higher, 566 nM
- O=C(/C=C/c1ccc(Cl)c(Cl)c1)N1CCC(=O)N(CCN2CCCCC2)CC1 [Example 3, 1-[(E)-3-(3,4-Dichloro-phenyl)-acryloyl]-4-(2-piperidin-1-yl-ethyl)-[1,4]diazepan-5-one] — 6-fold higher, 1240 nM
- CC1CC(O)CN(CCCN2CCN(C(=O)C=Cc3ccc(Cl)c(Cl)c3)CCC2=O)C1 (mixture of isomers) [Example 279, (rac,cis)-1-[(E)-3-(3,4-Dichloro-phenyl)-acryloyl]-4-[3-(3-hydroxy-5-methyl-piperidin-1-yl)-propyl]-[1,4]diazepan-5-one] — 41-fold lower, 5 nM
- O=C(/C=C/c1ccc(Cl)c(Cl)c1)N1CCC(=O)N(CCCN2CCC(O)C3(CC3)C2)CC1 (racemic) [Example 252] — 1.7-fold lower, 120 nM
- O=C(/C=C/c1ccc(Cl)c(Cl)c1)N1CCC(=O)N(CCC(O)CN2CCCC(CO)C2)CC1 (racemic) [Example 378] — 6-fold higher, 1240 nM
- O=C(/C=C/c1ccc(Cl)c(Cl)c1)N1CCC(=O)N(CCCN2CCC(O)(c3ccccn3)CC2)CC1 [Example 69, 1-[(E)-3-(3,4-Dichloro-phenyl)-acryloyl]-4-[3-(4′-hydroxy-3′,4′,5′,6′-tetrahydro-2′H-[2,4′]bipyridinyl-1′-yl)-propyl]-[1,4]diazepan-5-one] — within 1.5-fold, 185 nM
- CC1CN(CCCCN2CCN(C(=O)/C=C/c3ccc(Cl)c(Cl)c3)CCC2=O)CCC1O (racemic) [Example 440] — 2-fold lower, 103 nM
- O=C(/C=C/c1ccc(Cl)c(Cl)c1)N1CCC(=O)N(CCCCN2CC[C@@H](O)[C@H](O)C2)CC1 (racemic) [Example 165, 1-[(E)-3-(3,4-Dichloro-phenyl)-acryloyl]-4-[4-((3RS,4RS)-3,4-dihydroxy-piperidin-1-yl)-butyl]-[1,4]diazepan-5-one] — 1.7-fold higher, 345 nM
- COCC1CCC(O)CN1CCCCN1CCN(C(=O)/C=C/c2ccc(Cl)c(F)c2)CCC1=O (racemic) [Example 418] — 7.1-fold higher, 1470 nM
- COCC1CN(CCCCN2CCN(C(=O)/C=C/c3ccc(Cl)c(Cl)c3)CCC2=O)CCC1O (racemic) [Example 451] — 3.3-fold higher, 682 nM
- O=C(/C=C/c1ccc(Cl)c(F)c1)N1CCC(=O)N(CCCN2CCC3(CC3)C(O)C2)CC1 (stereo not drawn) [Example 493, 1-[(E)-3-(4-Chloro-3-fluoro-phenyl)-acryloyl]-4-[3-((+)-4-hydroxy-6-aza-spiro[2.5]oct-6-yl)-propyl]-[1,4]diazepan-5-one] — 14-fold lower, 15 nM
- CO[C@@H]1CN(CCCN2CCN(C(=O)/C=C/c3ccc(Cl)c(Cl)c3)CCC2=O)CC[C@@H]1CO (racemic) [Example 269, (rac,cis)-1-[(E)-3-(3,4-Dichloro-phenyl)-acryloyl]-4-[3-(3-methoxy-4-hydroxymethyl-piperidin-1-yl)-propyl]-[1,4]diazepan-5-one] — 3-fold higher, 619 nM
- O=C1CC2(CCN(CCCN3CCN(C(=O)/C=C/c4ccc(F)c(Cl)c4)CCC3=O)CC2)CN1 [Example 198] — 3.6-fold higher, 739 nM
- COC[C@H]1CCN(C[C@H](O)CN2CCN(C(=O)/C=C/c3ccc(F)c(Cl)c3)CCC2=O)C[C@H]1O (mixture of isomers) [Example 338, 1-[(E)-3-(3-Chloro-4-fluoro-phenyl)-acryloyl]-4-[(S)-2-hydroxy-3-(cis-3-hydroxy-4-methoxymethyl-piperidin-1-yl)-propyl]-[1,4]diazepan-5-one] — 2.7-fold higher, 553 nM
- O=C(/C=C/c1ccc(F)c(F)c1)N1CCC(=O)N(CCCN2CCC3(CC3)C(O)C2)CC1 (stereo not drawn) [Example 495] — 11-fold lower, 19 nM
- O=C(C=Cc1ccc(Cl)c(Cl)c1)N1CCC(=O)N(CCCCN2CCC(F)C(O)C2)CC1 (mixture of isomers) [Example 429, (rac,trans)-1-[(E)-3-(3,4-Dichloro-phenyl)-acryloyl]-4-[4-(4-fluoro-3-hydroxy-piperidin-1-yl)-butyl]-[1,4]diazepan-5-one] — 2.4-fold lower, 86 nM
- C[C@@]1(CO)CCN(CCCN2CCN(C(=O)/C=C/c3ccc(F)c(Cl)c3)CCC2=O)C[C@H]1O (racemic) [Example 220] — within 1.5-fold, 169 nM
- O=C(/C=C/c1cccc(Cl)c1)N1CCC(=O)N(CCCN2CCC3(CC3)C(O)C2)CC1 (stereo not drawn) [Example 496, 1-[(E)-3-(3-Chloro-phenyl)-acryloyl]-4-[3-((-)-4-hydroxy-6-aza-spiro[2.5]oct-6-yl)-propyl]-[1,4]diazepan-5-one] — 29-fold lower, 7 nM
- COC(=O)NC1CCN(CCCN2CCN(C(=O)/C=C/c3ccc(Cl)c(Cl)c3)CCC2=O)CC1 [Example 244] — 3.2-fold higher, 660 nM
- CC(C)N1CCN(CCCCN2CCN(C(=O)/C=C/c3ccc(Cl)c(Cl)c3)CCC2=O)CC1 [Example 436] — 3.6-fold higher, 746 nM
- CC1CCN(CCCN2CCN(C(=O)/C=C/c3ccc(Cl)c(Cl)c3)CCC2=O)CC1O (racemic) [Example 238] — 3.8-fold lower, 54 nM
- O=C(/C=C/c1ccc(Cl)c(Cl)c1)N1CCC(=O)N(CC(O)CN2CCC(CO)CC2)CC1 (racemic) [Example 291, (rac)-(1-[(E)-3-(3,4-Dichloro-phenyl)-acryloyl]-4-[2-hydroxy-3-(4-hydroxymethyl-piperidin-1-yl)-propyl]-[1,4]diazepan-5-one] — 2-fold higher, 404 nM
- O=C(/C=C/c1ccc(Cl)c(Cl)c1)N1CCC(=O)N(CCCCN2CCC(O)C(CO)C2)CC1 (racemic) [Example 450, (rac)-1-[(E)-3-(3,4-Dichloro-phenyl)-acryloyl]-4-[4-(4-hydroxy-3-hydroxymethyl-piperidin-1-yl)-butyl]-[1,4]diazepan-5-one] — within 1.5-fold, 243 nM
- O=C(/C=C/c1ccc(F)c(Cl)c1)N1CCC(=O)N(CCCCN2CCCCC2)CC1 [Example 382] — within 1.5-fold, 246 nM
- O=C(/C=C/c1ccc(F)c(Cl)c1)N1CCC(=O)N(CCCCN2CCC(CO)CC2)CC1 [Example 386] — 1.8-fold higher, 380 nM
- O=C(/C=C/c1ccc(Cl)c(Cl)c1)N1CCC(=O)N(CC(O)CN2CCC(O)C3(CC3)C2)CC1 (racemic) [Example 317] — 2.6-fold higher, 528 nM
- O=C(/C=C/c1ccc(Cl)c(Cl)c1)N1CCC(=O)N(CCCN2CCC[C@@H](O)C2)CC1 [Example 91, (R)-1-[(E)-3-(3,4-Dichloro-phenyl)-acryloyl]-4-[3-(3-hydroxy-piperidin-1-yl)-propyl]-[1,4]diazepan-5-one] — within 1.5-fold, 148 nM
- CC1(C)CN(CCCCN2CCN(C(=O)/C=C/c3ccc(Cl)c(Cl)c3)CCC2=O)CCC1O (racemic) [Example 464] — within 1.5-fold, 226 nM
